# Data reported in patent US20060089395A1, “Nf-kb activation inhibitors” (priority 2002, published 2006).
# Like-named read-outs stand apart in the source and are kept apart here.
# Test system: NF-κ B
# Experiment: Inhibitory activity of NF-κ B activation, luciferase reporter assay in HepG2 under TNF-α stimulation
# Format: cell-based, human
# Conditions: for inhibition at 0.1 µg/mL / inhibition at 1 µg/mL / inhibition at 10 µg/mL: Homo sapiens; for inhibition at 0.1 µg/mL: 0.1 μg/ml, read-out: Inhibitory Ratio of NF-κB Activation (%) 0.1 μg/ml
# Outline: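 HepG2 cells transiently transfected with a luciferase reporter driven by five tandem NF-κB binding sites, then incubated 6–24 h. Stimulated with TNF-α (40 ng/ml) with or without test compound for 4 h. Intracellular luciferase read by chemiluminescence; inhibition expressed relative to activity without compound.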
# [1] = HepG2, 4 h, comparison table, reporter assay
# [2] = HepG2, 4 h, 1 μg/ml, comparison table, reporter assay, read-out: Inhibitory Ratio of NF-κB Activation (%) 1 μg/ml
# [3] = HepG2, 4 h, 10 μg/ml, comparison table, reporter assay, read-out: Inhibitory Ratio of NF-κB Activation (%) 10 μg/ml
# [4] = 1 μg/mL, HepG2, TNF-α (40 ng/ml), 4 hours, read-out: Inhibitory Ratio of NF-κ B Activation(%) Drug Concentration 1 μg/mL
# [5] = 10 μg/mL, HepG2, TNF-α (40 ng/ml), 4 hours, read-out: Inhibitory Ratio of NF-κ B Activation(%) Drug Concentration 10 μg/mL
# [6] = 1 μg/mL, HepG2, TNF-α (40 ng/ml), 4 hours
# [7] = 10 μg/mL, HepG2, TNF-α (40 ng/ml), 4 hours
Compound,Inhibitory Ratio of NF-κ B Activation(%) Drug Concentration 1 μg/mL [6] [%],Inhibitory Ratio of NF-κ B Activation(%) Drug Concentration 10 μg/mL [7] [%],other results
"O=C(Nc1ccccc1C(F)(F)F)c1cc(Cl)ccc1O [drawing 562, reference compound]",–,–,inhibition at 0.1 µg/mL [1]: -18.4%; inhibition at 1 µg/mL [2]: 41.6%; inhibition at 10 µg/mL [3]: 92.9%
"CC(C)(C)c1nc(NC(=O)c2cc(Cl)ccc2O)sc1C#N [Compound No. 188, 5-Chloro-N-{5-cyano-4-[(1,1-dimethyl)ethyl]thiazol-2-yl)-2-hydroxybenzamide]",–,–,inhibition at 1 µg/mL [4]: 92.6%; inhibition at 10 µg/mL [5]: 92.4%
O=C(Nc1cc(Br)cc(C(F)(F)F)c1)c1cc(Cl)ccc1O [Compound No. 104],97.2,99.2,–
Cc1ccc(O)c(C(=O)Nc2cc(Cl)cc(Cl)c2)c1 [Compound No. 131],49.1,88.7,–
"O=C(Nc1nc(-c2ccc(Cl)cc2Cl)cs1)c1cc(Cl)ccc1O [Compound No. 255, 5-Chloro-2-hydroxy-N-[4-(2,4-dichlorophenyl)thiazol-2-yl]benzamide]",–,–,inhibition at 1 µg/mL [4]: > 99.9%
CC(C)(C)c1cc(C(=O)Nc2cc(C(F)(F)F)cc(C(F)(F)F)c2)c(O)c(C(C)(C)C)c1 [Compound No. 62],37.0,86.9,–
O=C(Nc1cc(Cl)cc(Cl)c1)c1cc(Br)ccc1O [Compound No. 126],77.1,92.8,–
"O=C(Nc1ccc(C(F)(F)F)cc1)c1cc(Cl)ccc1O [drawing 561, reference compound]",–,–,inhibition at 0.1 µg/mL [1]: -35.5%; inhibition at 1 µg/mL [2]: 85.3%; inhibition at 10 µg/mL [3]: 95%
"O=C(Nc1nc(-c2cc(F)ccc2F)cs1)c1cc(Cl)ccc1O [Compound No. 263, 5-Chloro-2-hydroxy-N-[4-(2,5-difluorophenyl)thiazol-2-yl]benzamide]",–,–,inhibition at 1 µg/mL [4]: > 99.9%
O=C(Nc1cc(C(F)(F)F)cc(C(F)(F)F)c1)c1cc(N=Nc2ccc([N+](=O)[O-])cc2)ccc1O [Compound No. 48],96.2,98.7,–
O=C(Nc1cc(C(F)(F)F)ccc1N1CCOCC1)c1cc(Cl)ccc1O [Compound No. 106],92.3,92.1,–
"CCc1nc(NC(=O)c2cc(Br)ccc2O)oc1CC [Compound No. 234, 5-Bromo-N-(4,5-diethyloxazol-2-yl)-2-hydroxybenzamide]",–,–,inhibition at 1 µg/mL [4]: 29.1%; inhibition at 10 µg/mL [5]: 63.1%
N#CC(=Cc1ccc(O)c(C(=O)Nc2cc(C(F)(F)F)cc(C(F)(F)F)c2)c1)C(=O)O [Compound No. 18],59.7,98.5,–
O=C(Nc1nc(Cc2ccccc2)c(-c2ccccc2)s1)c1cc(Br)ccc1O [Compound No. 212],79.7,95.0,–
C#Cc1ccc(O)c(C(=O)Nc2cc(C(F)(F)F)cc(C(F)(F)F)c2)c1 [Compound No. 21],53.3,90.1,–
CCOC(=O)c1sc(NC(=O)c2cc(Cl)ccc2O)nc1-c1ccccc1 [Compound No. 218],80.7,94.2,–
Cc1cc(C)cc(NC(=O)c2cc(Br)ccc2O)c1 [Compound No. 137],86.3,92.6,–
"CC(=O)Nc1cc(O)c(C(=O)Nc2cc(C(F)(F)F)cc(C(F)(F)F)c2)cc1Cl [Compound No. 50, 4-Acetylamino-N-[3,5-bis(trifluoromethyl)phenyl]-5-chloro-2-hydoxybenzamide]",69.9,96.0,–
CNC(=O)c1sc(NC(=O)c2cc(Br)ccc2O)nc1-c1ccccc1 [Compound No. 220],50.8,58.6,–
"O=C(Nc1cc(C(F)(F)F)cc(C(F)(F)F)c1)c1cc([N+](=O)[O-])ccc1O [Compound No. 8, N-[3,5-bis(trifluoromethyl)phenyl]-2-hydroxy-5-nitrobenzamide]",–,–,inhibition at 1 µg/mL [4]: 92%; inhibition at 10 µg/mL [5]: 99.2%
"COC(=O)C(C#N)=Cc1ccc(O)c(C(=O)Nc2cc(C(F)(F)F)cc(C(F)(F)F)c2)c1 [Compound No. 17, 3-({N-[3,5-bis(trifluoromethyl)phenyl]carbamoyl}-4-hydroxyphenyl)-2-cyanoacrylic acid methyl ester]",74.9,99.1,–
Cc1cnc(NC(=O)c2cc(Br)ccc2O)s1 [Compound No. 190],–,69.7,–

Compound,Inhibitory Ratio of NF-κ B Activation(%) Drug Concentration 1 μg/mL [6] [%],Inhibitory Ratio of NF-κ B Activation(%) Drug Concentration 10 μg/mL [7] [%],other results
O=C(Nc1cc(C(F)(F)F)ccc1Oc1ccc(Cl)cc1)c1cc(Cl)ccc1O [Compound No. 118],95.0,99.5,–
CCOc1ccc(OCC)c(NC(=O)c2cc(Cl)ccc2O)c1 [Compound No. 152],35.1,95.3,–
O=C(Nc1cc(C(F)(F)F)cc(C(F)(F)F)c1)c1cc(C(F)(F)C(F)(F)F)ccc1O [Compound No. 26],93.3,95.4,–
CCOC(=O)c1sc(NC(=O)c2cc(-n3cccc3)ccc2O)nc1-c1ccccc1 [Compound No. 229],74.0,90.1,–
COc1ccc(OC)c(NC(=O)c2cc3ccccc3cc2O)c1 [Compound No. 183],–,86.8,–
"COC(=O)c1ccc(O)c(C(=O)Nc2cc(C(F)(F)F)cc(C(F)(F)F)c2)c1 [Compound No. 35, N-[3,5-bis(trifluoromethyl)phenyl]-4-hydroxyisophthalamic acid methyl ester]",–,–,inhibition at 1 µg/mL [4]: 88.2%; inhibition at 10 µg/mL [5]: 96.4%
CC(C)(C)c1cc(NC(=O)c2cc(Cl)cnc2O)cc(C(C)(C)C)c1 [Compound No. 184],53.6,63.8,–
O=C(Nc1cc(C(F)(F)F)cc(C(F)(F)F)c1)c1cc(Cl)cc(Cl)c1O [Compound No. 56],89.4,95.1,–
CC(=O)Oc1ccc(Cl)cc1C(=O)Nc1cc(C(C)(C)C)cc(C(C)(C)C)c1 [Compound No. 139],90.8,94.7,–
COc1ccc(C(F)(F)F)cc1NC(=O)c1cc(Cl)ccc1O [Compound No. 95],91.8,98.5,–
Cc1ccc(O)c(C(=O)Nc2cc(C(F)(F)F)ccc2Cl)c1 [Compound No. 100],85.6,95.1,–
Cc1ccc(Oc2ccc(C(F)(F)F)cc2NC(=O)c2cc(Cl)ccc2O)cc1 [Compound No. 117],92.8,92.6,–
O=C(Nc1cc(C(F)(F)F)ccc1OCC(F)(F)F)c1cc(Cl)ccc1O [Compound No. 113],90.5,96.2,–
O=C(Nc1cc(C(F)(F)F)cc(C(F)(F)F)c1)c1c(O)c(Cl)cc(Cl)c1Cl [Compound No. 61],95.1,97.2,–
O=C(Nc1ccccc1)c1ccc(Cl)c(NC(=O)c2cc(Cl)ccc2O)c1 [Compound No. 157],52.6,98.8,–
"CN(C)C(=O)c1ccc(O)c(C(=O)Nc2cc(C(F)(F)F)cc(C(F)(F)F)c2)c1 [Compound No. 38, N^3-[3,5-bis(trifluoromethyl)phenyl]-4-hydroxy-N^1,N^1-dimethylisophthalamide]",–,–,inhibition at 1 µg/mL [4]: 16%; inhibition at 10 µg/mL [5]: 87.1%
O=C(Nc1ccc(O)c(C(=O)Nc2cc(C(F)(F)F)cc(C(F)(F)F)c2)c1)c1ccccc1 [Compound No. 45],–,63.4,–
O=C(Nc1cc(Cl)cc(Cl)c1)c1cc([N+](=O)[O-])ccc1O [Compound No. 130],–,70.6,–
"O=C(Nc1nc(-c2cc(C(F)(F)F)cc(C(F)(F)F)c2)cs1)c1cc(Cl)ccc1O [Compound No. 231, 5-Chloro-2-hydroxy-N-{4-[3,5-bis(trifluoromethyl)phenyl]thiazol-2-yl}benzamide]",–,–,inhibition at 1 µg/mL [4]: 95.9%; inhibition at 10 µg/mL [5]: 94.5%
O=C(Nc1cc(Cl)cc(Cl)c1)c1ccc(Cl)cc1O [Compound No. 129],–,71.8,–
CC(=O)Oc1ccccc1C(=O)Nc1cc(Cl)cc(Cl)c1 [Compound No. 121],92.9,95.5,–
